PubChem BioAssay (NCI)
“And” between values parts separate entries of the source, which are not always exact repeats. Equal entries are not always repeated.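 Results reflect a 48-hour exposure of cells in 96-well plates to compound at five concentrations. GI50 = concentration required for 50% inhibition of growth. Definition used: TGI = concentration required for complete inhibition of growth.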

Key:
Test in all cases: NCI anticancer screen, dose series, 48 h
[1] = system: HCC-2998 colon
[2] = system: DLD-1 colon
[3] = system: KM20L2 colon
[4] = system: MOLT-4 leukemia
[5] = system: LXFL 529 NSCLC
[6] = system: CCRF-CEM leukemia
[7] = system: EKVX NSCLC
[8] = system: OVCAR-5 ovarian
[9] = system: U251 CNS
[10] = system: UO-31 renal
[11] = system: RXF 393 renal
[12] = system: T-47D breast
[13] = system: DU-145 prostate
[14] = system: NCI/ADR-RES ovarian

Compound COc1ccc(N=NC(C(=O)c2ccccc2)C(=O)c2ccccc2)cc1 has a TGI [1] of 91.1 µM, a TGI [2] of 96.6 µM and a TGI [3] of 64 µM. For the same compound, the TGI [4] was 72.2 µM, the TGI [5] was over 100 µM and the TGI [6] was 58.2 µM. It also gave a TGI [7] of 71.1 µM, a TGI [8] of 87.1 µM and a TGI [9] of over 100 µM. It also gave a TGI [10] of 51.7 µM.

CN(C(=O)C12C3C4C5C3C1(C(=O)C13C6C7C8C6C1C8C73)C5C42)C(C)(C)C (centres undefined) was tested, and the TGI [1] was over 50 µM, the TGI [2] was over 34.7 µM and the TGI [3] was over 50 µM. It also gave a TGI [4] of over 50 µM, a TGI [5] of over 50 µM and a TGI [6] of over 37.9 µM. It also gave a TGI [7] of over 50 µM, a TGI [11] of over 50 µM and a TGI [8] of over 50 µM. For the same compound, the TGI [9] was over 50 µM and the TGI [10] was over 50 µM.

C/C=C(/I)CBr was tested, and the TGI [1] was 29.4 µM, the TGI [2] was 29.2 µM and the TGI [3] was 88.5 µM. For the same compound, the TGI [4] was 55.9 µM, the TGI [5] was 27.6 µM and the TGI [6] was 23.4 µM. It also gave a TGI [7] of 49 µM, a TGI [11] of 31.2 µM and a TGI [10] of 34 µM.

N#CN/C(N)=N/C/N=C(\N)NC#N showed a TGI [1] of over 100 µM, a TGI [2] of over 100 µM and a TGI [3] of over 100 µM. It also gave a TGI [4] of over 100 µM, a TGI [5] of over 100 µM and a TGI [6] of over 100 µM. The TGI [7] was over 100 µM, the TGI [11] was over 100 µM and the TGI [8] was over 100 µM. It also gave a TGI [9] of over 100 µM and a TGI [10] of over 100 µM.

O=C(c1nc2ccc([N+](=O)[O-])cc2[nH]c1=O)C(O)c1ccc2c(c1)OCO2 (centres undefined) showed a TGI [1] of over 100 µM, a TGI [2] of over 100 µM and a TGI [3] of over 100 µM. The TGI [4] was over 100 µM, the TGI [12] was over 100 µM and the TGI [13] was over 100 µM. The TGI [5] was over 100 µM, the TGI [6] was over 100 µM and the TGI [7] was over 100 µM. It also gave a TGI [11] of over 100 µM, a TGI [8] of over 100 µM and a TGI [9] of over 100 µM. For the same compound, the TGI [10] was over 100 µM and the TGI [14] was over 100 µM.

CCN(CC)CCCNc1ccc2nc(C)n3c4ccc(O)cc4c(=O)c1c23 showed a TGI [1] of 22.6 µM, a TGI [2] of 16.2 µM and a TGI [3] of 17.1 µM. For the same compound, the TGI [4] was 17 µM, the TGI [12] was 31.4 µM and the TGI [13] was 19.7 µM. For the same compound, the TGI [5] was 19.3 µM, the TGI [6] was 46.7 µM and the TGI [7] was 24.4 µM. The TGI [11] was 15 µM, the TGI [8] was 20.2 µM and the TGI [9] was 21 µM. The TGI [10] was 19.3 µM and the TGI [14] was 29.6 µM.

Compound CCC1(N=[N+]=[N-])C(=O)c2ccccc2N(C)C1=O (centres undefined) has a TGI [1] of over 100 µM, a TGI [2] of over 100 µM and a TGI [3] of over 100 µM. It also gave a TGI [4] of over 100 µM, a TGI [5] of over 100 µM and a TGI [6] of over 100 µM. For the same compound, the TGI [7] was over 100 µM, the TGI [8] was over 100 µM and the TGI [9] was over 100 µM. The TGI [10] was over 100 µM.

O=c1cc(CO)oc2c3c(cc(O)c12)OCC(COC1OC(CO)C(O)C(O)C1O)=CC3 (centres undefined) gave a TGI [1] of over 100 µM, a TGI [2] of over 100 µM and a TGI [3] of over 100 µM. The TGI [4] was over 100 µM, the TGI [5] was over 100 µM and the TGI [6] was over 100 µM. The TGI [7] was over 100 µM, the TGI [11] was over 100 µM and the TGI [8] was over 100 µM. For the same compound, the TGI [9] was over 100 µM and the TGI [10] was over 100 µM.

For CN(Cc1cnc2nc(N)nc(N)c2n1)c1ccc(C(=O)N[C@@H](CCC(=O)O)C(=O)O)cc1, the TGI [1] was 191 µM and > 250 µM, the TGI [2] was over 250 µM and the GI50 [3] was 0.0025 µM. The TGI [3] was over 250 µM, the GI50 [4] was 0.0278 µM and the TGI [4] was 159 µM. The TGI [12] was over 250 µM, the TGI [13] was over 250 µM and the TGI [5] was over 250 µM. The TGI [7] was over 250 µM, the TGI [11] was 215 µM and > 250 µM and the TGI [8] was 207 µM and > 250 µM. It also gave a TGI [9] of over 250 µM, a GI50 [10] of 0.0454 µM and a TGI [10] of 148 µM. For the same compound, the TGI [14] was over 250 µM.

With Cc1c2ccncc2cc2c1[nH]c1ccccc12 the TGI [1] was 15.7 µM, the TGI [2] was 38.5 µM and the TGI [3] was 22.4 µM. For the same compound, the TGI [4] was 6.59 µM, the TGI [6] was 15 µM and the TGI [7] was 16.3 µM. It also gave a TGI [11] of 7.35 µM, a TGI [8] of 13.6 µM and a TGI [9] of 7.65 µM. It also gave a TGI [10] of 9.89 µM and a TGI [14] of over 56.4 µM.

COc1ccc(C(c2c(O)c3ccccc3n(-c3ccccc3)c2=O)c2c(O)c3ccccc3n(-c3ccccc3)c2=O)cc1 gave a TGI [1] of over 100 µM, a TGI [2] of over 100 µM and a TGI [3] of over 100 µM. It also gave a TGI [4] of over 100 µM, a TGI [5] of over 100 µM and a TGI [6] of over 100 µM. For the same compound, the TGI [7] was over 100 µM, the TGI [11] was over 100 µM and the TGI [8] was over 100 µM. For the same compound, the TGI [9] was over 100 µM and the TGI [10] was over 100 µM.

With NC1=C(NC(=O)Cc2ccccc2F)C(=O)c2ccccc2C1=O the TGI [1] was over 100 µM, the TGI [2] was 52.9 µM and the TGI [3] was over 100 µM. For the same compound, the TGI [4] was over 100 µM, the TGI [6] was over 100 µM and the TGI [7] was over 100 µM. The TGI [11] was 56.5 µM, the TGI [9] was over 100 µM and the TGI [10] was over 100 µM.

For CCOc1ccc2[nH]c3c(C)c4ccncc4c(C)c3c2c1, the TGI [1] was 2.74 µM, the TGI [2] was 1.96 µM and the TGI [3] was 2.56 µM. The TGI [5] was 1.98 µM, the TGI [6] was over 100 µM and the TGI [7] was 2.9 µM. It also gave a TGI [8] of 2.93 µM, a TGI [9] of 2.16 µM and a TGI [10] of 13.9 µM.

For CC(=O)OCC1OC(n2cc(F)c(=O)[nH]c2=O)C(NC(=O)OCc2ccccc2)C(OC(C)=O)C1OC(C)=O (centres undefined), the TGI [1] was over 100 µM, the TGI [2] was over 100 µM and the TGI [3] was over 100 µM. For the same compound, the TGI [4] was over 100 µM, the TGI [6] was over 100 µM and the TGI [7] was over 100 µM. The TGI [11] was over 100 µM, the TGI [8] was over 100 µM and the TGI [9] was over 100 µM. For the same compound, the TGI [10] was over 100 µM and the TGI [14] was over 100 µM.

Compound Brc1ccc(C[P+]2(c3ccccc3)CCCCC2)cc1 has a TGI [1] of over 100 µM, a TGI [2] of over 100 µM and a TGI [3] of over 100 µM. The TGI [4] was over 100 µM, the TGI [5] was over 100 µM and the TGI [6] was over 100 µM. The TGI [7] was over 100 µM, the TGI [11] was over 100 µM and the TGI [8] was over 100 µM. It also gave a TGI [9] of over 100 µM and a TGI [10] of over 100 µM.

COC(=O)/C=C(C)/C=C/C1OC(C)OCC1O (centres undefined) showed a TGI [1] of over 100 µM, a TGI [2] of over 100 µM and a TGI [3] of over 100 µM. It also gave a TGI [4] of over 100 µM, a TGI [5] of over 100 µM and a TGI [6] of over 100 µM. It also gave a TGI [7] of over 100 µM, a TGI [8] of over 100 µM and a TGI [9] of over 100 µM. It also gave a TGI [10] of over 100 µM.

In the case of O=S(=O)(Nc1nc2ccccc2nc1Nc1ccc2ccccc2c1)c1ccccc1, the TGI [1] is reported as 29 µM, the TGI [4] is reported as 65.1 µM and the TGI [12] is reported as over 100 µM. For the same compound, the TGI [13] was over 100 µM, the TGI [6] was over 77.3 µM and the TGI [7] was over 100 µM. The TGI [11] was 86.1 µM, the TGI [8] was 81.2 µM and the TGI [9] was over 100 µM. The TGI [10] was 39.5 µM and the TGI [14] was over 100 µM.

With CN1C/C(=C\c2cccs2)C(O)/C(=C/c2cccs2)C1 (centres undefined) the TGI [1] was over 100 µM, the TGI [4] was 69.6 µM and the TGI [12] was 74.2 µM. The TGI [13] was over 100 µM, the TGI [6] was 52.7 µM and the TGI [7] was over 100 µM. For the same compound, the TGI [11] was over 100 µM, the TGI [8] was over 100 µM and the TGI [9] was over 100 µM. The TGI [10] was over 100 µM and the TGI [14] was over 100 µM.

NC(=S)/N=C(/c1nc2ccc(Cl)cc2[nH]c1=O)C(O)c1ccccc1Cl (centres undefined) gave a TGI [1] of over 100 µM, a TGI [2] of over 100 µM and a TGI [3] of over 100 µM. It also gave a TGI [4] of over 100 µM, a TGI [5] of over 100 µM and a TGI [6] of over 100 µM. It also gave a TGI [7] of over 100 µM, a TGI [11] of over 100 µM and a TGI [8] of over 100 µM. For the same compound, the TGI [9] was over 100 µM and the TGI [10] was over 100 µM.

Compound COC(=O)CCC1=C(CC(=O)OC)C(C)(OC)N=C1NC(=O)OCc1ccccc1 (centres undefined) has a TGI [1] of over 100 µM, a TGI [4] of over 100 µM and a TGI [12] of over 100 µM. For the same compound, the TGI [13] was over 100 µM, the TGI [6] was over 100 µM and the TGI [7] was over 100 µM. The TGI [11] was over 100 µM, the TGI [8] was over 100 µM and the TGI [9] was over 100 µM. It also gave a TGI [10] of over 100 µM and a TGI [14] of over 100 µM.

Cc1nc(C)c(N2CCN(S(=O)(=O)N(Cc3ccccc3)Cc3ccccc3)CC2)c(=O)[nH]1 was tested, and the TGI [1] was over 100 µM, the TGI [4] was over 100 µM and the TGI [12] was over 85.7 µM. The TGI [13] was over 100 µM, the TGI [6] was over 100 µM and the TGI [7] was over 100 µM. It also gave a TGI [11] of 38 µM, a TGI [8] of over 100 µM and a TGI [9] of 20.4 µM. The TGI [10] was over 100 µM and the TGI [14] was over 100 µM.

CC1(C)OC2[C@@H](CO[C@@]3([C@@H](O)CCO)OC(C)(C)O[C@@H]23)O1 (some centres undefined) showed a TGI [1] of over 100 µM, a TGI [4] of over 100 µM and a TGI [12] of over 100 µM. The TGI [13] was over 100 µM, the TGI [6] was over 100 µM and the TGI [7] was over 100 µM. It also gave a TGI [11] of over 100 µM, a TGI [8] of over 100 µM and a TGI [9] of over 100 µM. For the same compound, the TGI [10] was over 100 µM and the TGI [14] was over 100 µM.
